Test results reported in patent publication US6663881B2 (priority 1993, dated 2003).
Where two headings read alike, the source gives them in different places.

Tests used:
[1] = test system: balloon traumatized pig femoral arteries; assay: Biological stenting of balloon traumatized pig femoral arteries (luminal area morphometry); format: in vivo
Protocol: Pig femoral arteries were traumatized as described in Example 7, and then treated with cytochalasin B. About 1.5 to about 2 ml of cytochalasin B at 0.1 μg/ml was infused into portions of the artery that had been separated from other portions by ligatures. The artery was then pressurized for 3 minutes and the fluid aspirated. Approximately 8 to about 30 lambda of the solution is retained in the interstitial space surrounding the cells in the tunica media. Ten femoral arteries (two arteries obtained from each of the 5 pigs that were treated according to the single dose protocol described in Example 7) were then evaluated histologically at 4 days or 3 weeks after cytochalasin B adminstration. The maximal luminal area of each artery was measured and calculated from digitized microscopic images by a BQ System IV computerized morphometric analysis system (R & M Biometrics, Inc., Nashville, Tenn.). This experiment was repeated with 5 additional pigs (two arteries per pig; cytochalasin B dose=0.1 μg/ml, applied for 3 minutes at 1 atm pressure; same time points). The data obtained from the two experiments were combined.
The luminal area of the traumatized and cytochalasin B-treated segments of the arteries were also compared to the luminal area of the normal, untreated region of the femoral artery proximal to the test area. […]

[2] = test system: balloon traumatized swine coronary arteries; assay: Dose-response study of balloon traumatized swine coronary arteries (Table 14, morphometry); format: in vivo
[3] = test system: balloon traumatized left carotid artery; assay: Inter-arterial infusion of crystalline cytochalasin B in balloon traumatized rat carotid artery; format: in vivo, Sprague-Dawley rats
Protocol: Another study employed twenty, male, Sprague-Dawley rats. The rats underwent balloon trauma to their left carotid artery, followed by inter-arterial infusion of a solution containing 1 mg crystalline cytochalasin B in […] vehicle (Hanks sterile salt solution with 0.5% Cremophor) or a diluent (saline) control. Animals were sacrificed immediately after infusion, and 2, 4, 7 and 14 days post-trauma and infusion. Post-sacrifice, the left and the right (control) carotid arteries were removed. Samples of arteries were obtained for quantitation of ^3H-cytochalasin B by oxidation and scintillation counting, histopathology, autoradiography and vascular morphometry. Histopathology documented uniform, circumferential balloon trauma in the arterial wall of the left carotid arteries.

[4] = test system: Vascular smooth muscle cells

For `C=C1[C@@H](C)[C@H]2[C@H](Cc3ccccc3)NC(=O)[C@]23OC(=O)/C=C/[C@H](O)CCC[C@@H](C)C/C=C/[C@H]3[C@@H]1O` [cytochalasin B], the “lumen area of test region vs normal control segment of the same artery” value ([1]; 0.1 μg/ml for cytochalasin B) was “approximately two times as large”, the “luminal area vs other test agents or controls” value ([1]; 0.1 μg/ml, 4 day and 3 week post-treatment) was “larger luminal area” and the “artery lumen areas over three weeks vs diluent control” value ([1]; 0.1 μg/ml, two way analysis of variance) was “statistically significant difference (p<0.05)”. For the same molecule, the “toxicity to the vascular smooth muscle cells” value ([1]; 10 μg/ml dose, dose response study) was “appeared to be toxic”, the “myofilament reformation (electron micrographs)” value ([1]; about 0.1 to about 10.0 μg/ml) was “myofilament reformation was retarded” and the “constriction or vascular remodeling” value ([1]; pig, in vivo) was “did not undergo the constriction or chronic geometrical (vascular) remodeling”. For the same molecule, the “incidence of mural microthrombi” value ([1]; vs untreated balloon traumatized arteries) was “decreased”, the coronary luminal area ([2]; 0.1, 1.5 or 10.0 μg/ml, three weeks after intervention) was “sustained arterial dilation” and the “myocardial or arterial lesions (histology)” value ([2]; in vivo) was “did not result in myocardial or arterial lesions”. For the same molecule, the “amount present over the treated length of artery” value ([3]; day 0) was “approximately 8 ug”, the “amount present over the treated length of artery” value ([3]; day 2) was “less than 2 ng” and the crystals by autoradiography ([3]; day 4) was “not detectable by autoradiography”. The “mean luminal area and neointimal area vs diluent control” value ([3]; five treated rats) was “higher mean luminal area and a smaller neointimal area”, the “neointima formation vs diluent treated rats” value ([3]; morphometric analysis) was “no statistically significant reduction in neointima formation” and the Morphological cytotoxicity grade ([4]; 0.01 μg, 24 hrs + 24 hrs) was 0. The Morphological cytotoxicity grade ([4]; 0.01 μg, 24 hrs + 48 hrs) was 0, the Morphological cytotoxicity grade ([4]; 0.01 μg, 24 hrs + 72 hrs) was 0 and the Morphological cytotoxicity grade ([4]; 0.01 μg, 24 hrs + 96 hrs) was 0. For the same molecule, the Morphological cytotoxicity grade ([4]; 0.01 μg, 24 hrs + 120 hrs) was 0, the Morphological cytotoxicity grade ([4]; 0.01 μg, Continuous 6 hrs) was 0 and the Morphological cytotoxicity grade ([4]; 0.01 μg, Continuous 24 hrs (first listing)) was 0. It also gave a Morphological cytotoxicity grade ([4]; 0.01 μg, Continuous 24 hrs (second listing)) of 0, a Morphological cytotoxicity grade ([4]; 0.01 μg, Continuous 48 hrs) of 0 and a Morphological cytotoxicity grade ([4]; 0.01 μg, Continuous 72 hrs) of 0. It also gave a Morphological cytotoxicity grade ([4]; 0.01 μg, Continuous 96 hrs) of 0, a Morphological cytotoxicity grade ([4]; 0.01 μg, Continuous 120 hrs) of 0 and a Morphological cytotoxicity grade ([4]; 0.01 μg, Continuous 168 hrs) of 0. For the same molecule, the Morphological cytotoxicity grade ([4]; 0.01 μg, Continuous 216 hrs) was 0, the Morphological cytotoxicity grade ([4]; 0.01 μg, Continuous 264 hrs) was 0 and the Morphological cytotoxicity grade ([4]; 0.1 μg, 5 min + 2 hrs) was 0. It also gave a Morphological cytotoxicity grade ([4]; 0.1 μg, 5 min + 24 hrs) of 0, a Morphological cytotoxicity grade ([4]; 0.1 μg, 5 min + 48 hrs) of 0 and a Morphological cytotoxicity grade ([4]; 0.1 μg, 5 min + 72 hrs) of 0. The Morphological cytotoxicity grade ([4]; 0.1 μg, 5 min + 96 hrs) was 0, the Morphological cytotoxicity grade ([4]; 0.1 μg, 5 min + 120 hrs) was 0 and the Morphological cytotoxicity grade ([4]; 0.1 μg, 24 hrs + 24 hrs) was 0.5. The Morphological cytotoxicity grade ([4]; 0.1 μg, 24 hrs + 48 hrs) was 1, the Morphological cytotoxicity grade ([4]; 0.1 μg, 24 hrs + 72 hrs) was 0.5 and the Morphological cytotoxicity grade ([4]; 0.1 μg, 24 hrs + 96 hrs) was 0. The Morphological cytotoxicity grade ([4]; 0.1 μg, 24 hrs + 120 hrs) was 0, the Morphological cytotoxicity grade ([4]; 0.1 μg, Continuous 6 hrs) was 0 and the Morphological cytotoxicity grade ([4]; 0.1 μg, Continuous 24 hrs (first listing)) was 1. It also gave a Morphological cytotoxicity grade ([4]; 0.1 μg, Continuous 24 hrs (second listing)) of 0, a Morphological cytotoxicity grade ([4]; 0.1 μg, Continuous 48 hrs) of 1 and a Morphological cytotoxicity grade ([4]; 0.1 μg, Continuous 72 hrs) of 1. For the same molecule, the Morphological cytotoxicity grade ([4]; 0.1 μg, Continuous 120 hrs) was 1, the Morphological cytotoxicity grade ([4]; 0.1 μg, Continuous 168 hrs) was 1 and the Morphological cytotoxicity grade ([4]; 0.1 μg, Continuous 216 hrs) was 1. For the same molecule, the Morphological cytotoxicity grade ([4]; 0.1 μg, Continuous 264 hrs) was 1, the Morphological cytotoxicity grade ([4]; 1 μg, 5 min + 2 hrs) was 0 and the Morphological cytotoxicity grade ([4]; 1 μg, 5 min + 48 hrs) was 1. For the same molecule, the Morphological cytotoxicity grade ([4]; 1 μg, 5 min + 72 hrs) was 1, the Morphological cytotoxicity grade ([4]; 1 μg, 5 min + 96 hrs) was 1 and the Morphological cytotoxicity grade ([4]; 1 μg, 5 min + 120 hrs) was 1. For the same molecule, the Morphological cytotoxicity grade ([4]; 1 μg, 24 hrs + 24 hrs) was 3, the Morphological cytotoxicity grade ([4]; 1 μg, 24 hrs + 48 hrs) was 4 and the Morphological cytotoxicity grade ([4]; 1 μg, 24 hrs + 72 hrs) was 4. For the same molecule, the Morphological cytotoxicity grade ([4]; 1 μg, 24 hrs + 96 hrs) was 4, the Morphological cytotoxicity grade ([4]; 1 μg, 24 hrs + 120 hrs) was 4 and the Morphological cytotoxicity grade ([4]; 1 μg, Continuous 24 hrs (first listing)) was 3. It also gave a Morphological cytotoxicity grade ([4]; 1 μg, Continuous 24 hrs (second listing)) of 3, a Morphological cytotoxicity grade ([4]; 1 μg, Continuous 48 hrs) of 3 and a Morphological cytotoxicity grade ([4]; 1 μg, Continuous 72 hrs) of 3. For the same molecule, the Morphological cytotoxicity grade ([4]; 1 μg, Continuous 96 hrs) was 3, the Morphological cytotoxicity grade ([4]; 1 μg, Continuous 120 hrs) was 3 and the Morphological cytotoxicity grade ([4]; 1 μg, Continuous 168 hrs) was 4. For the same molecule, the Morphological cytotoxicity grade ([4]; 1 μg, Continuous 216 hrs) was 4, the Morphological cytotoxicity grade ([4]; 1 μg, Continuous 264 hrs) was 4 and the “cytotoxicity grade at in vitro effective dosage” value ([4]; 1 μg/ml, anti-migration/contraction effective dose) was 1. It also gave a Morphological cytotoxicity grade ([4]; 10 μg, 5 min + 2 hrs) of 0.5, a Morphological cytotoxicity grade ([4]; 10 μg, 5 min + 24 hrs) of 4 and a Morphological cytotoxicity grade ([4]; 10 μg, 5 min + 48 hrs) of 4. For the same molecule, the Morphological cytotoxicity grade ([4]; 10 μg, 5 min + 120 hrs) was 5.
